Results published in ChEMBL document CHEMBL4507268 (2021).

How the values were obtained:
Settings in all cases: Compound concentration 1.0 uM
[1] = molecular target: Casein kinase I isoform gamma-3 (Homo sapiens) (UniProt Q9Y6M4)
[2] = molecular target: T1, Serine/threonine-protein kinase DCLK3 (Homo sapiens) (UniProt Q9C098)
T1 sequence (whole entry): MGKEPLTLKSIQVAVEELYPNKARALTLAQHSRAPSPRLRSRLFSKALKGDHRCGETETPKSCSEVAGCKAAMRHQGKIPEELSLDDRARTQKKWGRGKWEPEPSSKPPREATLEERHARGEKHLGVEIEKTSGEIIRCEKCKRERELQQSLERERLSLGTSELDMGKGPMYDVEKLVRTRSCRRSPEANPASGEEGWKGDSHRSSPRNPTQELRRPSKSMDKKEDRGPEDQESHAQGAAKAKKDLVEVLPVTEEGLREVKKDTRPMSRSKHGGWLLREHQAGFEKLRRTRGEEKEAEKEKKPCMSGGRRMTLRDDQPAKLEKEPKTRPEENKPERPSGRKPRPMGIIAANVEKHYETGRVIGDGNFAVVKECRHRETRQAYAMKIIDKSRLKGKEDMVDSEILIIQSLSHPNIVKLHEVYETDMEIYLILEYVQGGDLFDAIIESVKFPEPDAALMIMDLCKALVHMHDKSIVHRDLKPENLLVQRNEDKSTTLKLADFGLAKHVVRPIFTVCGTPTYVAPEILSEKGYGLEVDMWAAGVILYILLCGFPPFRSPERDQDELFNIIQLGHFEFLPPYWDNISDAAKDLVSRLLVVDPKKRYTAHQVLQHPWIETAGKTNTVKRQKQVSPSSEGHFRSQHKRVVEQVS

[3] = molecular target: Tyrosine-protein kinase Lyn (Homo sapiens) (UniProt P07948)
Chain of Tyrosine-protein kinase Lyn (Homo sapiens) (P07948 2-512 limits assumed): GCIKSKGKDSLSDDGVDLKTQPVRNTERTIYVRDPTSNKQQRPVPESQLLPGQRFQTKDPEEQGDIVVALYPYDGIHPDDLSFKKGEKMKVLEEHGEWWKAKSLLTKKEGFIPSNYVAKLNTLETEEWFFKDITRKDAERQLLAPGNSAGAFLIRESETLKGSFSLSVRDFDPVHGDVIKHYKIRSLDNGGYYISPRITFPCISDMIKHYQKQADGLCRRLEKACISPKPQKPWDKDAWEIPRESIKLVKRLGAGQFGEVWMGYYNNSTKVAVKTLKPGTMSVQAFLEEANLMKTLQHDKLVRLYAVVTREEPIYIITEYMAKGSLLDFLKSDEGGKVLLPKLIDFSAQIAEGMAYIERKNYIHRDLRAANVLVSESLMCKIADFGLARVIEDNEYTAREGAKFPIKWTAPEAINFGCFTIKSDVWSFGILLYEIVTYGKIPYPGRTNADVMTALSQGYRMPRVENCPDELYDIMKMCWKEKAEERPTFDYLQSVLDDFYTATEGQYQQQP

[4] = molecular target: Leucine-rich repeat serine/threonine-protein kinase 2 (Homo sapiens) (UniProt Q5S007)
[5] = molecular target: RAC-beta serine/threonine-protein kinase (Homo sapiens) (UniProt P31751)
Chain of RAC-beta serine/threonine-protein kinase (Homo sapiens) (P31751 whole entry): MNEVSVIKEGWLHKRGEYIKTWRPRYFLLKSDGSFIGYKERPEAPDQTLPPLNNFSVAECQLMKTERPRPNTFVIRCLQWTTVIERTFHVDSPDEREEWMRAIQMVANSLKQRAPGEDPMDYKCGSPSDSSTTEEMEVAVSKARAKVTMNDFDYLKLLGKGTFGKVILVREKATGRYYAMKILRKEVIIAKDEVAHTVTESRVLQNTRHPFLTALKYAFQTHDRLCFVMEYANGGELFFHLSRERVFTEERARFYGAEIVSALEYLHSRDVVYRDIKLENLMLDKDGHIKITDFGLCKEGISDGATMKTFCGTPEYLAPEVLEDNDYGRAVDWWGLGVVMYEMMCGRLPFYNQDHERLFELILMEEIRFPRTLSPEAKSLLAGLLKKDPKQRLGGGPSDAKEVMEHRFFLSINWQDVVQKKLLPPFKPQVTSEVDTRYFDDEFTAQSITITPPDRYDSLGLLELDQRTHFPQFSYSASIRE

[6] = molecular target: Protein kinase C zeta type (Homo sapiens) (UniProt Q05513)
Chain of Protein kinase C zeta type (Homo sapiens) (Q05513 whole entry): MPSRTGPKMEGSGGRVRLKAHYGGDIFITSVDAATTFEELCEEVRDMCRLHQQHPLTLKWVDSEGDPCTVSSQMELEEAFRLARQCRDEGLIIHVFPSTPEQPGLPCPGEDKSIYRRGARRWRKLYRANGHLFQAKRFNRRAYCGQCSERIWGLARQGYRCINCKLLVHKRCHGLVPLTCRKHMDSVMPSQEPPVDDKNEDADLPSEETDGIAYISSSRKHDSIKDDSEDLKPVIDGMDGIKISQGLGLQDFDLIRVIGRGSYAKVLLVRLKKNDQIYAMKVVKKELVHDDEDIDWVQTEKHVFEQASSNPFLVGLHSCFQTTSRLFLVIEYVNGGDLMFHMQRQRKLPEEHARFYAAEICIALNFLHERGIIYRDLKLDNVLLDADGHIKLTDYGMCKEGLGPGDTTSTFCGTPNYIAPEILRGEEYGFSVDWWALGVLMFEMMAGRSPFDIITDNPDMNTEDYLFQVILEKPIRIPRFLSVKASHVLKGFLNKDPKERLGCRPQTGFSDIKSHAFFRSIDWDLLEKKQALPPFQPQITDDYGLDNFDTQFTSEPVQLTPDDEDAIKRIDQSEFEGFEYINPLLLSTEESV

[7] = molecular target: T2, MAP kinase-activated protein kinase 5 (Homo sapiens) (UniProt Q8IW41)
T2 sequence (whole entry): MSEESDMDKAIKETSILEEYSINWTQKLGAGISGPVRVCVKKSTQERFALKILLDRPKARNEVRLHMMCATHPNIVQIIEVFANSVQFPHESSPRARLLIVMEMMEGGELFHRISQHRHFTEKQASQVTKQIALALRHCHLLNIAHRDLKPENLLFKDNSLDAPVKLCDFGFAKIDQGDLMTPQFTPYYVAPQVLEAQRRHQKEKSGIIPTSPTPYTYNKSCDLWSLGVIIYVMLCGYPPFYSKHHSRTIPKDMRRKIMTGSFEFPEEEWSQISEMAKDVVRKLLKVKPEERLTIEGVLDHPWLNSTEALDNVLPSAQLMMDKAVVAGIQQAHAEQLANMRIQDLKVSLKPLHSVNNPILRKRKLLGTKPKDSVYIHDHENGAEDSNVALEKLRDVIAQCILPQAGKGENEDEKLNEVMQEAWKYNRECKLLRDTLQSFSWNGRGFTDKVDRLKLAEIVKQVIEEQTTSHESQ

[8] = molecular target: STE20-like serine/threonine-protein kinase (Homo sapiens) (UniProt Q9H2G2)
Chain of STE20-like serine/threonine-protein kinase (Homo sapiens) (Q9H2G2 whole entry, looked up): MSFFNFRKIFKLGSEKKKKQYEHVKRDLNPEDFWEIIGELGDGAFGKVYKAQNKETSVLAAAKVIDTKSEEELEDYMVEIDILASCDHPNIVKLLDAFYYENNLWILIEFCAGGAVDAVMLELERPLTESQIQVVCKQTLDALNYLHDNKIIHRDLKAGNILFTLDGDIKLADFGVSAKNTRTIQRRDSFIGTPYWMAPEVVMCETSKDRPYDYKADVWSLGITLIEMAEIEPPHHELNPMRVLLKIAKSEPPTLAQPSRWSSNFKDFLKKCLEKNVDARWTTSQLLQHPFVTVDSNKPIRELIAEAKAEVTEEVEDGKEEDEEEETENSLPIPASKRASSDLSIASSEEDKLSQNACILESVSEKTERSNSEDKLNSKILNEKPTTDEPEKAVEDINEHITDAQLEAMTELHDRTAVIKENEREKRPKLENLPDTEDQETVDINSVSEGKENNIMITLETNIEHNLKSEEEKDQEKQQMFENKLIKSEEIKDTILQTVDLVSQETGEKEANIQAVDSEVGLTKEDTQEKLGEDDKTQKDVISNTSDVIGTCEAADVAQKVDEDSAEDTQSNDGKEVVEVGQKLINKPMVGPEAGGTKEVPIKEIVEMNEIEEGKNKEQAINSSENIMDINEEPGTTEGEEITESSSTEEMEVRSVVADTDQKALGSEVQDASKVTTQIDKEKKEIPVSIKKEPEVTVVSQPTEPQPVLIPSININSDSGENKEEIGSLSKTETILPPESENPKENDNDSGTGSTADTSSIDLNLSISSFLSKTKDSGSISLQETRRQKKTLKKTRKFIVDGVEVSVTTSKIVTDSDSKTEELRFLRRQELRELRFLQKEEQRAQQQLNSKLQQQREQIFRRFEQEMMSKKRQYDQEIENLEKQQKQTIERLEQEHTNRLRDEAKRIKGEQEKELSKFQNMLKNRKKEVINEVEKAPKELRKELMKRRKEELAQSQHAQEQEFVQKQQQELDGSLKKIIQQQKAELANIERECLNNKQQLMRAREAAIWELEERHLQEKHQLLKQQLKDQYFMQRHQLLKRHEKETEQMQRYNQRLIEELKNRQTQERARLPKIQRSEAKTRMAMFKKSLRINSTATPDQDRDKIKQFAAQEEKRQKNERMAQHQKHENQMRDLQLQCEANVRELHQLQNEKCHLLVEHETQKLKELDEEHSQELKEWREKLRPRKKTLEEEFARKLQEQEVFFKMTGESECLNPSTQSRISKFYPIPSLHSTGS

[9] = molecular target: Death-associated protein kinase 3 (Homo sapiens) (UniProt O43293)
Chain of Death-associated protein kinase 3 (Homo sapiens) (O43293 whole entry, looked up, the tested form may be a part): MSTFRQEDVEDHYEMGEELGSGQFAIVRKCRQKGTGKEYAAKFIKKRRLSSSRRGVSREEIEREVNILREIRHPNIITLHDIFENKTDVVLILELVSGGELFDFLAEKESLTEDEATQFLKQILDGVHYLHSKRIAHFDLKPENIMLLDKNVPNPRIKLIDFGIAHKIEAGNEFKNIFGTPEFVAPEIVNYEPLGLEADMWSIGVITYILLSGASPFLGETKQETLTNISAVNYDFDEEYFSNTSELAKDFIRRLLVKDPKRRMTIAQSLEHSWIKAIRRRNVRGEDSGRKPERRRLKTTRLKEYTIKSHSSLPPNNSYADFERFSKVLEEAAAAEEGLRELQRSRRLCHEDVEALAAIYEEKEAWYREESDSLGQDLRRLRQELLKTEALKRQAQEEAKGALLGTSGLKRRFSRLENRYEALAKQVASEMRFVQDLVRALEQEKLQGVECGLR

[10] = molecular target: T3, Phosphatidylinositol 3-kinase C2 domain-containing subunit gamma (Homo sapiens) (UniProt O75747)
T3 sequence (whole entry): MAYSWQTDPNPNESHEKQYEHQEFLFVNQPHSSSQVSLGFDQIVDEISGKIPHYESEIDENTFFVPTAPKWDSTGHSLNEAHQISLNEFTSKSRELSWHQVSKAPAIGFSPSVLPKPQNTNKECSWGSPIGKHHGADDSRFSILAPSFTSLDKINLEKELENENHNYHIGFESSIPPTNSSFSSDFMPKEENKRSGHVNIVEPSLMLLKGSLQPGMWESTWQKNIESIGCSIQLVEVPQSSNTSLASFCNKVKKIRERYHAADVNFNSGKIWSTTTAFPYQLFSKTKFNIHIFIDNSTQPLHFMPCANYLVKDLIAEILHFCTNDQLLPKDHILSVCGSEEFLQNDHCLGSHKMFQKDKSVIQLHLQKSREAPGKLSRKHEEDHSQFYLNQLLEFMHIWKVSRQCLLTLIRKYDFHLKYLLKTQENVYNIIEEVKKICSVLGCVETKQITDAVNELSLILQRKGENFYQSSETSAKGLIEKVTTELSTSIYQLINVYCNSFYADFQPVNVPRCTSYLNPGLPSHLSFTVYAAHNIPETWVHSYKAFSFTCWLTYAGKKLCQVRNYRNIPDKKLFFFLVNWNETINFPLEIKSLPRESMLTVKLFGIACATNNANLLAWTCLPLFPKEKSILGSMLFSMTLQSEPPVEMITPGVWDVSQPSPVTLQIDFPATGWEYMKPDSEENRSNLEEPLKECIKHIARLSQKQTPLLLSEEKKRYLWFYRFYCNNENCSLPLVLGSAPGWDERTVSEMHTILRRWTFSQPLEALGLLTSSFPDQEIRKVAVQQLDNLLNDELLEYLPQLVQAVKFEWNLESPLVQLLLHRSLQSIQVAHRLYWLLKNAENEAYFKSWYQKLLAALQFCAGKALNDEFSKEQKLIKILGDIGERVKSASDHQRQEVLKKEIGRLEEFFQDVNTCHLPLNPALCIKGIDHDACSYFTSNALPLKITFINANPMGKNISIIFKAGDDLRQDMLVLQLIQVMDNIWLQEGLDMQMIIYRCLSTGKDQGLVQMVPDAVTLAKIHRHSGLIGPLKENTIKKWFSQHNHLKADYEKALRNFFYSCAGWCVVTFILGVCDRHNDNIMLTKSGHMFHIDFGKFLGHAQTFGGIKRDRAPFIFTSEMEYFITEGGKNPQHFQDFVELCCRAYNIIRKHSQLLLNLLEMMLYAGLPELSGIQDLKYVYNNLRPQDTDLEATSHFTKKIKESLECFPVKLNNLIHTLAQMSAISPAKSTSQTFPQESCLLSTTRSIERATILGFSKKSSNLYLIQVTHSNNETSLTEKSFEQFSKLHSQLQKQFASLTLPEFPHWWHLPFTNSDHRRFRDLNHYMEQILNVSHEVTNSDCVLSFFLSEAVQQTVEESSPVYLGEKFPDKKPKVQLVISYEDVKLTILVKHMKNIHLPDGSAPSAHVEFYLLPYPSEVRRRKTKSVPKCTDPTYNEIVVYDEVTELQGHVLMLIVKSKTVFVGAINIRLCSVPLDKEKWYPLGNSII

Measured: % residual kinase activity

Chain of Casein kinase I isoform gamma-3 (Homo sapiens) (Q9Y6M4 whole entry, looked up, canonical isoform): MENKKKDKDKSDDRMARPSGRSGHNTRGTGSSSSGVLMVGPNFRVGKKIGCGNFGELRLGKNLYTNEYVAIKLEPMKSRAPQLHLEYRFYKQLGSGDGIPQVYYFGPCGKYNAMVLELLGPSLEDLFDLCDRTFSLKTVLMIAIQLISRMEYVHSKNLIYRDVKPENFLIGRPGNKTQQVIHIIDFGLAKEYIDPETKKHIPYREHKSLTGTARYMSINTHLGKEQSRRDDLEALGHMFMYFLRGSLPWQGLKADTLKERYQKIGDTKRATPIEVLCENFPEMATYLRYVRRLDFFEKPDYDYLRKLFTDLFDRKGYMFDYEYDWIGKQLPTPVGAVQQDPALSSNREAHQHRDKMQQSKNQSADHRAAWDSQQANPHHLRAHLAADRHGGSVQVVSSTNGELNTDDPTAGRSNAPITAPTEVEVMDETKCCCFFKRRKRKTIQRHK

CN1CCN(c2cnc3c(C4CCN(C(=O)c5ccc(OC(F)(F)F)cc5N)CC4)ncnc3c2)CC1 [BAY-885]
inactive: [1] 96% | [2] 92% | [3] 100% | [4] 102% | [5] 109% | [6] 114% | [7] 109% | [8] 87% | [9] 111% | [10] 94%
